Assay results taken from patent publication US20190106721A1, “Method for the fermentative production of L-amino acids” (priority 2017, published 2019).
Values after ≈ are worked out from the molar mass of the structure shown.

What was measured:
Experiment in all cases: Minimal inhibitory concentration test (MIC-Test) of lincomycin, serial dilution in liquid culture
[1] = system: ATCC13032/pVWEx1_lmrB^ATCC14067; assay type: cell-based; conditions: Corynebacterium glutamicum, 20 h
Procedure: (§1) For this purpose a first well of a microliter plate was filled with 360 μl of BHI medium supplemented with 0.3 mM IPTG and 250 μg/ml lincomycin-hydrochloride. A volume of 180 μl was removed and placed into a second well previously filled with 180 μl BHI medium supplemented with 0.3 mM IPTG. Thus a second well containing BHI medium supplemented with 0.3 mM IPTG and 125 μg/ml lincomycin-hydrochloride was prepared. From said second well 180 ∞l were removed and placed into a third well previously filled with 180 μl BHI medium supplemented with 0.3 mM IPTG. These dilution steps were repeated several times to cover the concentration range mentioned above. Thus wells containing 180 μl of the respective test medium were obtained. A control medium without lincomycin-hydrochloride was included in the test procedure.
(§2) A preculture of the strain to be tested was made in BHI medium (as described under cultivation) supplemented with 250 μg/ml kanamycin in case of plasmid containing strains). The preculture was centrifuged and the cell pellet resuspended in 0.9% (w/v) NaCl solution to give an OD660 of 1.0. A volume of 20 μl of the suspension was used to inoculate the test medium contained in the wells. The micro titer plate was incubated at 300 rpm and 33° C. in an Infors HT Multitron standard incubator shaker from Infors GmbH (Bottmingen, Switzerland). After 20 h the optical densities were measured. The test medium having the lowest concentration of lincomycin-hydrochloride preventing growth of the culture is given as MIC.
(§3) The MIC's of lincomycin for strains ATCC13032/pVWEx1; ATCC13032/pVWEx1_lmrB^ATCC14067; DM1933_ΔlmrB::EcoRV/pVWEx1 and DM1933_ΔlmrB::EcoRV/pVWEx1_lmrB^ATCC14067 constructed in example 8 were determined as described in materials and methods.

ATCC13032/pVWEx1 = assay type: cell-based; conditions: Corynebacterium glutamicum; strain ATCC13032/pVWEx1; as lincomycin-hydrochloride; BHI medium with 0.3 mM IPTG, 20 h, 33° C.
Procedure: as §1, §2, §3

[2] = system: DM1933_ΔlmrB::EcoRV/pVWEx1_lmrB^ATCC14067; assay type: cell-based; conditions: Corynebacterium glutamicum, ATCC14067, 20 h
Procedure: as §1, §2, §3

[3] = system: DM1933_ΔlmrB::EcoRV/pVWEx1; assay type: cell-based, Corynebacterium glutamicum; conditions: 20 h
Procedure: as §1, with “A control medium without lincomycin-hydrochloride was included in the test procedure.” left out
(§4) A preculture of the strain to be tested was made in BHI medium (as described under cultivation) supplemented with 250 μg/ml kanamycin in case of plasmid containing strains). […] After 20 h the optical densities were measured. […]
as §3
(§5) The MIC's of lincomycin for strains DM1933_ΔlmrB::EcoRV/pVWEx1 and DM1933_ΔlmrB::EcoRV/pVWEx1_lmrB^DM1547 constructed in examples 8 and 11 were determined as described in materials and methods.

[4] = system: DM1933_ΔlmrB::EcoRV/pVWEx1_lmrB^DM1547; assay type: cell-based; conditions: Corynebacterium glutamicum, 20 h
Procedure: as §1
as §4, with “strains). The preculture was centrifuged and the cell pellet resuspended in 0.9% (w/v) NaCl solution to give an OD660 of 1.0.” for “strains).”
as §5

For CCC[C@@H]1C[C@@H](C(=O)N[C@@H]([C@H]2O[C@H](SC)[C@H](O)[C@@H](O)[C@H]2O)[C@@H](C)O)N(C)C1 [lincomycin, Lincomycin], the MIC [1] was 125 µg/mL (≈ 307 µM), the MIC (ATCC13032/pVWEx1) was 15.6 µg/mL (≈ 38.4 µM) and the MIC [2] was 62.5 µg/mL (≈ 154 µM). It also gave an MIC ([3]; Corynebacterium glutamicum) of 7.8 µg/mL (≈ 19.2 µM), an MIC ([3]; strain DM1933_DlmrB/pVWEx1 (Table 25), as lincomycin-hydrochloride, BHI medium with 0.3 mM IPTG, 33° C.) of 7.8 µg/mL (≈ 19.2 µM) and an MIC [4] of 62.5 µg/mL (≈ 154 µM).
